# In patent publication US8215314B2, “Photochemical tissue bonding” (The General Hospital Corporation, priority 2000, dated 2012):
# Tested on: cornea
# Assay: Examination of eyes for thermal damage after PTB (tissue shrinkage, deformation)
# Parameters: species or system rabbit
# Settings: RB PTB
# Description: Post-treatment, the eyes were examined for the presence of thermal damage. Tissue shrinkage and deformation around the wound site were taken as signs of thermal damage. Thermal damage to the cornea was not observed at the lowest irradiance tested (1.27 W/cm2). […] Thermal effects produced using high irradiances may produce collagen contraction resulting in distortion of the patient's vision.
smiles,measurement,setting,value
O=C([O-])c1c(Cl)c(Cl)c(Cl)c(Cl)c1-c1c2cc(I)c(=O)c(I)c-2oc2c(I)c([O-])c(I)cc12.[Na+].[Na+] [Rose Bengal],thermal damage to the cornea,2.55 W/cm2,occasionally
same,thermal damage to the cornea,762 to 1524 J/cm2 at 3.82 W/cm2,could be observed
same,thermal damage to the cornea,lowest irradiance 1.27 W/cm2,not observed
